Assay results published in ChEMBL document CHEMBL5120812, “Cytotoxic Nitrobenzoyl Sesquiterpenoids from an Antarctica Sponge-Derived Aspergillus insulicola” (J Nat Prod, 2022).
Structures can show the parent of a compound that is named as a salt.

How the values were obtained:
Format in all cases: functional, cell-based
PANC-1 = assay: Cytotoxicity against human PANC-1 cells assessed as inhibition of cell growth incubated for 72 hrs by SRB assay; details: PANC-1, 72 h
ASPC1 = assay: Cytotoxicity against human ASPC1 cells assessed as inhibition of cell growth incubated for 72 hrs by SRB assay; details: ASPC1, 72 h
MDA-MB-231 = assay: Cytotoxicity against human MDA-MB-231 cells assessed as inhibition of cell growth incubated for 72 hrs by SRB assay; details: MDA-MB-231, 72 h

| SMILES | IC50 (PANC-1) [nM] | IC50 (ASPC1) [nM] | IC50 (MDA-MB-231) [nM] |
| --- | --- | --- | --- |
| COc1cccc2c1C(=O)c1c(O)c3c(c(O)c1C2=O)C[C@@](O)(C(=O)CO)C[C@@H]3O[C@H]1C[C@H](N)[C@H](O)[C@H](C)O1 [DOXORUBICIN HYDROCHLORIDE] | 900 | 300 | 200 |
| C=C(CCCCCCCC(=O)OC[C@@]1(C)CCC[C@@]2(C)[C@H]1[C@H](OC(=O)c1ccc([N+](=O)[O-])cc1)C=C1C(=O)OC[C@@]12O)C(=O)O | 4600 | 2700 | 11700 |
| C=C(CCCCCCCC(=O)OC[C@@]1(C)CCC[C@]2(C)[C@H]3COC(=O)C3=C[C@@H](OC(=O)c3ccc([N+](=O)[O-])cc3)[C@@H]12)C(=O)O | > 30000 | > 30000 | > 30000 |
